Measured values taken from PubChem BioAssay (NCI).
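GI50: concentration for 50% inhibition of growth. TGI marks complete inhibition of growth.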

Tests used:
Assay in all cases: NCI anticancer screen, dose series, 384-well format; in the data active = GI50 below about 0.43 µM; inactive = the rest
786-0 renal = system: 786-0 renal
A498 renal = system: A498 renal
A549 NSCLC = system: A549 NSCLC
ACHN renal = system: ACHN renal
BT-549 breast = system: BT-549 breast
CAKI-1 renal = system: CAKI-1 renal
CCRF-CEM leukemia = system: CCRF-CEM leukemia
DU-145 prostate = system: DU-145 prostate
EKVX NSCLC = system: EKVX NSCLC
HCT-116 colon = system: HCT-116 colon
HCT-15 colon = system: HCT-15 colon
HL-60(TB) leukemia = system: HL-60(TB) leukemia
HOP-62 NSCLC = system: HOP-62 NSCLC
HOP-92 NSCLC = system: HOP-92 NSCLC
HS 578T breast = system: HS 578T breast
HT29 colon = system: HT29 colon
IGROV1 ovarian = system: IGROV1 ovarian
K-562 leukemia = system: K-562 leukemia
KM12 colon = system: KM12 colon
LOX IMVI melanoma = system: LOX IMVI melanoma
M14 melanoma = system: M14 melanoma
MALME-3M melanoma = system: MALME-3M melanoma
MCF7 breast = system: MCF7 breast
MDA-MB-231 breast = system: MDA-MB-231 breast
MDA-MB-435 melanoma = system: MDA-MB-435 melanoma
MDA-MB-468 breast = system: MDA-MB-468 breast
MOLT-4 leukemia = system: MOLT-4 leukemia
NCI-H226 lung = system: NCI-H226 lung
NCI-H23 lung = system: NCI-H23 lung
NCI-H322M lung = system: NCI-H322M lung
NCI-H522 lung = system: NCI-H522 lung
NCI/ADR-RES ovarian = system: NCI/ADR-RES ovarian
OVCAR-3 ovarian = system: OVCAR-3 ovarian
OVCAR-4 ovarian = system: OVCAR-4 ovarian
OVCAR-5 ovarian = system: OVCAR-5 ovarian
OVCAR-8 ovarian = system: OVCAR-8 ovarian
PC-3 prostate = system: PC-3 prostate
RPMI-8226 leukemia = system: RPMI-8226 leukemia
RXF 393 renal = system: RXF 393 renal
SF-268 CNS = system: SF-268 CNS
SF-295 CNS = system: SF-295 CNS
SF-539 CNS = system: SF-539 CNS
SK-MEL-2 melanoma = system: SK-MEL-2 melanoma
SK-MEL-28 melanoma = system: SK-MEL-28 melanoma
SK-OV-3 ovarian = system: SK-OV-3 ovarian
SN12C renal = system: SN12C renal
SNB-19 CNS = system: SNB-19 CNS
SNB-75 CNS = system: SNB-75 CNS
SW-620 colon = system: SW-620 colon
T-47D breast = system: T-47D breast
TK-10 renal = system: TK-10 renal
U251 glioblastoma = system: U251 glioblastoma
UACC-257 melanoma = system: UACC-257 melanoma
UACC-62 melanoma = system: UACC-62 melanoma
UO-31 renal = system: UO-31 renal

CC(C)Cn1cnc2c(N)nc3ccccc3c21
inactive: GI50 ([…]-0 renal) > 100 µM | GI50 (A498 renal) > 100 µM | GI50 (A549 NSCLC) > 100 µM | GI50 (ACHN renal) > 100 µM | GI50 (BT-549 breast) > 100 µM | GI50 (CAKI-1 renal) > 100 µM | GI50 (CCRF-CEM leukemia) > 100 µM | GI50 (DU-145 prostate) > 100 µM | GI50 (EKVX NSCLC) 67.9 µM | GI50 (HCT-116 colon) > 100 µM | GI50 (HCT-15 colon) > 100 µM | GI50 (HL-60(TB) leukemia) > 100 µM | GI50 (HOP-62 NSCLC) > 100 µM | GI50 (HOP-92 NSCLC) > 100 µM | GI50 (HS 578T breast) > 100 µM | GI50 (HT29 colon) > 100 µM | GI50 (IGROV1 ovarian) > 100 µM | GI50 (K-562 leukemia) > 100 µM | GI50 (KM12 colon) > 100 µM | GI50 (LOX IMVI melanoma) > 100 µM | GI50 (M14 melanoma) > 100 µM | GI50 (MALME-3M melanoma) > 100 µM | GI50 (MCF7 breast) > 100 µM | GI50 (MDA-MB-231 breast) > 100 µM | GI50 (MDA-MB-435 melanoma) > 100 µM | GI50 (MDA-MB-468 breast) > 100 µM | GI50 (MOLT-4 leukemia) > 100 µM | GI50 (NCI-H226 lung) > 100 µM | GI50 (NCI-H23 lung) > 100 µM | GI50 (NCI-H322M lung) > 100 µM | GI50 (NCI-H522 lung) > 100 µM | GI50 (NCI/ADR-RES ovarian) > 100 µM | GI50 (OVCAR-3 ovarian) > 100 µM | GI50 (OVCAR-4 ovarian) > 100 µM | GI50 (OVCAR-5 ovarian) > 100 µM | GI50 (OVCAR-8 ovarian) > 100 µM | GI50 (PC-3 prostate) > 100 µM | GI50 (RPMI-8226 leukemia) > 100 µM | GI50 (RXF 393 renal) > 100 µM | GI50 (SF-268 CNS) > 100 µM | GI50 (SF-295 CNS) > 100 µM | GI50 (SF-539 CNS) > 100 µM | GI50 (SK-MEL-2 melanoma) > 100 µM | GI50 (SK-MEL-28 melanoma) > 100 µM | GI50 (SK-OV-3 ovarian) > 100 µM | GI50 (SN12C renal) > 100 µM | GI50 (SNB-19 CNS) > 100 µM | GI50 (SNB-75 CNS) > 100 µM | GI50 (SW-620 colon) > 100 µM | GI50 (T-47D breast) > 100 µM | GI50 (TK-10 renal) > 100 µM | GI50 (U251 glioblastoma) > 100 µM | GI50 (UACC-257 melanoma) > 100 µM | GI50 (UACC-62 melanoma) > 100 µM | GI50 (UO-31 renal) > 100 µM
> 100 µM: TGI (786-0 renal) | TGI (A498 renal) | TGI (A549 NSCLC) | TGI (ACHN renal) | TGI (BT-549 breast) | TGI (CAKI-1 renal) | TGI (CCRF-CEM leukemia) | TGI (DU-145 prostate) | TGI (EKVX NSCLC) | TGI (HCT-116 colon) | TGI (HCT-15 colon) | TGI (HL-60(TB) leukemia) | TGI (HOP-62 NSCLC) | TGI (HOP-92 NSCLC) | TGI (HS 578T breast) | TGI (HT29 colon) | TGI (IGROV1 ovarian) | TGI (K-562 leukemia) | TGI (KM12 colon) | TGI (LOX IMVI melanoma) | TGI (M14 melanoma) | TGI (MALME-3M melanoma) | TGI (MCF7 breast) | TGI (MDA-MB-231 breast) | TGI (MDA-MB-435 melanoma) | TGI (MDA-MB-468 breast) | TGI (MOLT-4 leukemia) | TGI (NCI-H226 lung) | TGI (NCI-H23 lung) | TGI (NCI-H322M lung) | TGI (NCI-H522 lung) | TGI (NCI/ADR-RES ovarian) | TGI (OVCAR-3 ovarian) | TGI (OVCAR-4 ovarian) | TGI (OVCAR-5 ovarian) | TGI (OVCAR-8 ovarian) | TGI (PC-3 prostate) | TGI (RPMI-8226 leukemia) | TGI (RXF 393 renal) | TGI (SF-268 CNS) | TGI (SF-295 CNS) | TGI (SF-539 CNS) | TGI (SK-MEL-2 melanoma) | TGI (SK-MEL-28 melanoma) | TGI (SK-OV-3 ovarian) | TGI (SN12C renal) | TGI (SNB-19 CNS) | TGI (SNB-75 CNS) | TGI (SW-620 colon) | TGI (T-47D breast) | TGI (TK-10 renal) | TGI (U251 glioblastoma) | TGI (UACC-257 melanoma) | TGI (UACC-62 melanoma) | TGI (UO-31 renal)
